Measured values as given in patent publication US11439641B2, “Pyrimidine JAK inhibitors for the treatment of skin diseases” (THERAVANCE BIOPHARMA R&D IP, LLC, priority 2019, dated 2022).

Assays:
[1] = target: Tyk2 (Homo sapiens (Human), UniProt P29597); assay: Biochemical JAK and Tyk2 Kinase Assays (LanthaScreen), Tyk2; settings: 10 μM ATP (Km), pIC50 converted to pKi by Cheng-Prusoff
[2] = system: Caco-2 cell monolayer; assay: Caco-2 Permeation Assay; assay type: in vitro ADME; settings: Papp, 5 μM compound; for Cacoverap Kp 10^−6 cm/sec: A→B in the presence of 25 μM verapamil (P-gp inhibitor); for Caco Kp 10^−6 cm/sec: apical to basal (A→B)
How it was run: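 Compound at 5 μM, in duplicate, crosses Caco-2 monolayers apical to basal over 120 min at 37 °C. This is run with and without 25 μM verapamil to test for P-gp efflux. Samples are quantified by LC-MS/MS, and Papp in cm/sec is calculated as dQ/(dt × area × concentration).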

[3] = system: IL-22 suppressed Filaggrin expression in normal human epidermal keratinocytes; assay: Recovery of IL-22 Suppressed Filaggrin in Normal Human Epidermal Keratinocytes; assay type: cell-based; settings: IL-22 50 ng/mL, real-time PCR
Method: Assay 7: Recovery of IL-22 Suppressed Filaggrin in Normal Human Epidermal Keratinocytes
IL-22 is known to inhibit the expression of terminal differentiation genes, such as Filaggrin. The recovery level of test compound for interleukin-22 (IL-22) suppressed Filaggrin expression was measured in the normal human epidermal keratinocytes (ATCC) using real-time PCR.
Primary epidermal keratinocytes were cultured in a 37° C., 5% CO2 humidified incubator in dermal cell basal medium (ATCC) supplemented with keratinocyte growth kit (ATCC) and 1× Pen/Strep (Life Technologies). Cells were seeded at 5,000 cells/well in BioCoat 96-well plates (Corning) with 100 μl and incubated at 37° C., 5% CO2 for 3 to 4 days till 100% confluency. Then, the medium was removed and replaced with 1504 of medium containing does-response of test compounds. Compounds were serially diluted in DMSO and then diluted another 1000-fold in media to bring the final DMSO concentration to 0.1%. On day 1 of the assay, cells were incubated with test compounds at 37° C. for 1 h, and followed by the addition of followed by the addition of IL-22 (R&D Systems; final concentration 50 ng/mL) in pre-warmed media (50 μL) for 4 days. The medium with test compounds and IL-22 was changed once on day 3. On day 5, cells were washed with 1×PBS (Gibco) and lysed with 50 μl of Lysis Buffer containing 0.5 μl DnaseI from TaqMan® Gene Expression Cells-to-Ct™ Kit (Life Technologies). After incubation at room temperature (RT) for 5 minutes, 5 μl of Stop solution from the kit was added and then incubated at RT for 2 minutes. 11.25 μl of lysate, 12.5 μl of 2×RT buffer and 1.25 μl 20×RT enzyme mix from the kit were mixed. The reverse transcription reaction was carried out by incubating the mixture at 37° C. for 60 minutes and then 95° C. for 5 minutes to generate cDNA. To assemble the PCR cocktail, each reaction contained 10 μl of 2× TaqMan® Gene Expression Mater Mix, 1 μl of 2× TaqMan® Filaggrin Gene Expression Assay (Life Technologies), 1 μl of 2× TaqMan® UBC Gene Expression Assay (Life Technologies), 4 μl of nuclease-free water and 4 μl of cDNA. PCR reactions were done on StepOnePlus™ (Life Technologies) with cycling conditions of 50° C. for 2 minutes, 95° C. for 10 minutes followed by 40 cycles of 95° C. for 15 seconds and 60° C. for 1 minute. Fluorescence signals were captured after each cycle. Comparative CT method was used to quantify gene expression with cells without IL-22 and test compounds as baseline control.

[4] = Solubility Assay in Organic Excipients; settings: maximum upper limit 20,000 μM; for Solubility in MCT (mg/mL): medium chain triglycerides (MCT)

Sequence of Tyk2 (P29597 whole entry): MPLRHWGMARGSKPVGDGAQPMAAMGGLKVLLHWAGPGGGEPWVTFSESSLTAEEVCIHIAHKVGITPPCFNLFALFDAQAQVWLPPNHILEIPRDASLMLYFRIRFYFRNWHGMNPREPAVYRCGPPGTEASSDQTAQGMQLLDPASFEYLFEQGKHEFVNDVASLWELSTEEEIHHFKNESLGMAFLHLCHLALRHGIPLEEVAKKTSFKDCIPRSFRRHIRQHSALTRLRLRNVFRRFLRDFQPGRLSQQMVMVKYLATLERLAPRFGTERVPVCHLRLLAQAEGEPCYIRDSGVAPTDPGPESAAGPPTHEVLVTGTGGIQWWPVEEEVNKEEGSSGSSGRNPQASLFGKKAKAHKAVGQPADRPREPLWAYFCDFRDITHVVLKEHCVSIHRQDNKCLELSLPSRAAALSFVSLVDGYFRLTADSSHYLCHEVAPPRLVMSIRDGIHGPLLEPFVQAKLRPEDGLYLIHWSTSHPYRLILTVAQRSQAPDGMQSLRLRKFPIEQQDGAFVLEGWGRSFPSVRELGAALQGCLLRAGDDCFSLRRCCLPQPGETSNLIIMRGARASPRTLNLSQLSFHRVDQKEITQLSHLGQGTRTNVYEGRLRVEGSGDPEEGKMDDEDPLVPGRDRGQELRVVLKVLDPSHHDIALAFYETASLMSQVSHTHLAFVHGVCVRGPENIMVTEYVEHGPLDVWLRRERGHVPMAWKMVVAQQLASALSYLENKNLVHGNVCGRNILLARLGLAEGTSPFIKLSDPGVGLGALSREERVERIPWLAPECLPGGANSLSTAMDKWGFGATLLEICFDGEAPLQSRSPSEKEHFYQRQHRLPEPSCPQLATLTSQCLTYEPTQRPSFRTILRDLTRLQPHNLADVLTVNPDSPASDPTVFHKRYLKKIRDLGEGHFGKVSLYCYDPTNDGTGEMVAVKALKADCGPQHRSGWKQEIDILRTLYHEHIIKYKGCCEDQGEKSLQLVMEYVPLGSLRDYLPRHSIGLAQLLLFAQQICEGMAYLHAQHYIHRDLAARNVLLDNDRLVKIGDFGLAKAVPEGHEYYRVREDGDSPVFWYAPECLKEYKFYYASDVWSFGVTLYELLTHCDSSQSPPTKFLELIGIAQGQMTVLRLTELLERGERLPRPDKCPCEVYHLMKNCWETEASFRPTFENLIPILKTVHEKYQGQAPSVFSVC

Structure (SMILES) | Tyk 2 (pKi) [1] | Cacoverap Kp 10^−6 cm/sec [2] | Caco Kp 10^−6 cm/sec [2] | concentration at which recovery of IL-22 suppressed Filaggrin expression was observed [3] [µM] | Solubility in PEG400 (mg/mL) [4] | Solubility in Diisopropyl adipate (mg/mL) [4] | Solubility in MCT (mg/mL) [4] | Solubility in Propylene glycol (mg/mL) [4] | Ki ([1]; read-out: Tyk 2 (pKi) (converted)) [nM]
CCS(=O)(=O)N1[C@@H]2CCC[C@H]1C[C@H](N(C)c1nc(COC3COC3)c(F)c(Nc3cc(C)[nH]n3)n1)C2 [Compound 41, N2-((1R,3s,5S)-9-(ethylsulfonyl)-9-azabicyclo[3.3.1]nonan-3-yl)-5-fluoro-N2-methyl-N4-(5-methyl-1H-pyrazol-3-yl)-6-((oxetan-3-yloxy)methyl)pyrimidine-2,4-diamine] | A (A represents a pKi value ≥10 (Ki≤0.1 nM)) | A (A represents a value above 35×10^−6 cm/sec) | A (A represents a value above 30×10^−6 cm/sec) | < 1 | B (B represents a value between 5 and 10) | A (A represents a value above 10) | C (C represents a value below 5) | A (A represents a value above 10) | 
CCS(=O)(=O)N1[C@@H]2CCC[C@H]1C[C@H](N(C)c1nc(Nc3cc(C)[nH]n3)cc(C3CCCO3)n1)C2 (stereo partly drawn) [Compound 8, N^2-((1R,3s,5S)-9-(ethylsulfonyl)-9-azabicyclo[3.3.1]nonan-3-yl)-N2-methyl-N4-(5-methyl-1H-pyrazol-3-yl)-6-(tetrahydrofuran-2-yl)pyrimidine-2,4-diamine] | A (A represents a pKi value ≥10 (Ki≤0.1 nM)) | A (A represents a value above 35×10^−6 cm/sec) | A (A represents a value above 30×10^−6 cm/sec) | < 1 | A (A represents a value above 10) | B (B represents a value between 5 and 10) | C (C represents a value below 5) | A (A represents a value above 10) | 
COC(=O)N1[C@@H]2CCC[C@H]1C[C@H](N(C)c1nc(Nc3cc(C)[nH]n3)cc(O[C@@H]3CCOC3)n1)C2 [Compound 23] |  | B (B represents a value between 20×10^−6 and 35×10^−6 cm/sec) | A (A represents a value above 30×10^−6 cm/sec) | < 1 |  |  |  |  | 0.1 to 1
CCS(=O)(=O)N1[C@@H]2CCC[C@H]1C[C@H](N(C)c1nc(CO[C@@H]3CCOC3)c(F)c(Nc3cc(C)[nH]n3)n1)C2 [Compound 43, N2-((1R,3s,5S)-9-(ethylsulfonyl)-9-azabicyclo[3.3.1]nonan-3-yl)-5-fluoro-N2-methyl-N4-(5-methyl-1H-pyrazol-3-yl)-6-((((R)-tetrahydrofuran-3-yl)oxy)methyl)pyrimidine-2,4-diamine] | A (A represents a pKi value ≥10 (Ki≤0.1 nM)) |  | A (A represents a value above 30×10^−6 cm/sec) | < 1 | A (A represents a value above 10) | A (A represents a value above 10) | C (C represents a value below 5) | A (A represents a value above 10) | 
CCS(=O)(=O)N1[C@@H]2CCC[C@H]1C[C@H](N(C)c1nc(CO[C@H]3CCOC3)c(F)c(Nc3cc(C)[nH]n3)n1)C2 [Compound 42, N2-((1R,3s,5S)-9-(ethylsulfonyl)-9-azabicyclo[3.3.1]nonan-3-yl)-5-fluoro-N2-methyl-N4-(5-methyl-1H-pyrazol-3-yl)-6-((((S)-tetrahydrofuran-3-yl)oxy)methyl)pyrimidine-2,4-diamine] | A (A represents a pKi value ≥10 (Ki≤0.1 nM)) |  | A (A represents a value above 30×10^−6 cm/sec) | < 1 | A (A represents a value above 10) | A (A represents a value above 10) | C (C represents a value below 5) | A (A represents a value above 10) | 
